Results as given in ChEMBL document CHEMBL6087462, “Cuminaldehyde Potentiates Antiproteolytic Peptide Efficacy via Parallel Pathways of Enhanced Inner Membrane-Damaging Activity and Inhibition of Bacterial Energy Metabolism” (J Med Chem, 2025).

How the values were obtained:
Escherichia coli [1] = test: Synergistic antimicrobial activity against Escherichia coli UB1005 assessed as fractional inhibitory concentration index in presence of perillaldehyde by checkerboard broth microdilution assay; type: functional
Pseudomonas aeruginosa [2] = test: Antimicrobial activity against Pseudomonas aeruginosa ATCC 27853 assessed as cuminaldehyde MIC by CLSI based broth microdilution method; type: functional
Enterococcus faecalis [3] = test: Synergistic antimicrobial activity against Enterococcus faecalis 29212 assessed as fractional inhibitory concentration index in presence of thymol by checkerboard broth microdilution assay; type: functional
Escherichia coli [4] = test: Synergistic antimicrobial activity against Escherichia coli 078 assessed as fractional inhibitory concentration index in presence of thymol by checkerboard broth microdilution assay; type: functional, 78
Staphylococcus aureus [5] = test: Antimicrobial activity against Staphylococcus aureus ATCC 25923 assessed as reduction in microbial growth in presence of cuminaldehyde by CLSI based broth microdilution method; type: functional
Staphylococcus aureus [6] = test: Antimicrobial activity against Staphylococcus aureus ATCC 29213 assessed as reduction in microbial growth by CLSI based broth microdilution method; type: functional
[7] = Antimicrobial activity against Salmonella enterica subsp. enterica serovar Pullorum ATCC 7913 assessed as cuminaldehyde MIC by CLSI based broth microdilution method; type: functional
Escherichia coli [8] = test: Synergistic antimicrobial activity against Escherichia coli K99 assessed as fractional inhibitory concentration index in presence of cuminaldehyde by checkerboard broth microdilution assay; type: functional
Escherichia coli [9] = test: Synergistic antimicrobial activity against Escherichia coli 078 assessed as fractional inhibitory concentration index in presence of carvacrol by checkerboard broth microdilution assay; type: functional, 78
Staphylococcus aureus [10] = test: Antimicrobial activity against Staphylococcus aureus 43300 assessed as reduction in microbial growth in presence of cuminaldehyde by CLSI based broth microdilution method; type: functional
Staphylococcus aureus [11] = test: Synergistic antimicrobial activity against Staphylococcus aureus 43300 assessed as fractional inhibitory concentration index in presence of perillaldehyde by checkerboard broth microdilution assay; type: functional
Staphylococcus aureus [12] = test: Synergistic antimicrobial activity against Staphylococcus aureus ATCC 25923 assessed as fractional inhibitory concentration by checkerboard broth microdilution assay; type: functional
Salmonella typhimurium [13] = test: Synergistic antimicrobial activity against Salmonella typhimurium 14028 assessed as fractional inhibitory concentration index in presence of perillaldehyde by checkerboard broth microdilution assay; type: functional, Salmonella enterica subsp. enterica serovar Typhimurium
Staphylococcus aureus [14] = test: Synergistic antimicrobial activity against Staphylococcus aureus 25923 assessed as fractional inhibitory concentration index in presence of citronellal by checkerboard broth microdilution assay; type: functional
Escherichia coli [15] = test: Synergistic antimicrobial activity against Escherichia coli UB1005 assessed as fractional inhibitory concentration index in presence of citral by checkerboard broth microdilution assay; type: functional
[16] = system: Staphylococcus epidermidis; test: Antimicrobial activity against Staphylococcus epidermidis ATCC 12228 assessed as reduction in microbial growth in presence of cuminaldehyde by CLSI based broth microdilution method; type: functional
Escherichia coli [17] = test: Synergistic antimicrobial activity against Escherichia coli 078 assessed as fractional inhibitory concentration index in presence of citronellal by checkerboard broth microdilution assay; type: functional, 78
Salmonella typhimurium [18] = test: Antimicrobial activity against Salmonella typhimurium ATCC 14028 assessed as reduction in microbial growth by CLSI based broth microdilution method; type: functional, Salmonella enterica subsp. enterica serovar Typhimurium; details: Salmonella enterica
Enterococcus faecalis [19] = test: Antimicrobial activity against Enterococcus faecalis ATCC 29212 assessed as cuminaldehyde MIC by CLSI based broth microdilution method; type: functional
Escherichia coli [20] = test: Synergistic antimicrobial activity against Escherichia coli 078 assessed as fractional inhibitory concentration index in presence of cuminaldehyde by checkerboard broth microdilution assay; type: functional, 78
[21] = Synergistic antimicrobial activity against Salmonella enterica subsp. enterica serovar Pullorum 7913 assessed as fractional inhibitory concentration index in presence of perillaldehyde by checkerboard broth microdilution assay; type: functional
Escherichia coli [22] = test: Antimicrobial activity against Escherichia coli 078 assessed as reduction in microbial growth by CLSI based broth microdilution method; type: functional
Escherichia coli [23] = test: Antimicrobial activity against Escherichia coli ATCC 25922 assessed as reduction in microbial growth by CLSI based broth microdilution method; type: functional
Staphylococcus aureus [24] = test: Synergistic antimicrobial activity against Staphylococcus aureus 29213 assessed as fractional inhibitory concentration index in presence of citral by checkerboard broth microdilution assay; type: functional
[25] = system: Staphylococcus epidermidis; test: Synergistic antimicrobial activity against Staphylococcus epidermidis 12228 assessed as fractional inhibitory concentration index in presence of carvacrol by checkerboard broth microdilution assay; type: functional
Salmonella typhimurium [26] = test: Synergistic antimicrobial activity against Salmonella typhimurium 7731 assessed as fractional inhibitory concentration index in presence of perillaldehyde by checkerboard broth microdilution assay; type: functional, Salmonella enterica subsp. enterica serovar Typhimurium
Staphylococcus aureus [27] = test: Antimicrobial activity against Staphylococcus aureus 43300 assessed as cuminaldehyde MIC by CLSI based broth microdilution method; type: functional
Escherichia coli [28] = test: Synergistic antimicrobial activity against Escherichia coli UB1005 assessed as fractional inhibitory concentration index in presence of carvacrol by checkerboard broth microdilution assay; type: functional
Escherichia coli [29] = test: Synergistic antimicrobial activity against Escherichia coli ATCC 25922 assessed as fractional inhibitory concentration by checkerboard broth microdilution assay; type: functional
[30] = Synergistic antimicrobial activity against Salmonella enterica subsp. enterica serovar Pullorum 7913 assessed as fractional inhibitory concentration index in presence of cuminaldehyde by checkerboard broth microdilution assay; type: functional
Salmonella typhimurium [31] = test: Synergistic antimicrobial activity against Salmonella typhimurium 7731 assessed as fractional inhibitory concentration index in presence of citronellal by checkerboard broth microdilution assay; type: functional, Salmonella enterica subsp. enterica serovar Typhimurium
Escherichia coli [32] = test: Antimicrobial activity against Escherichia coli K99 assessed as reduction in microbial growth in presence of cuminaldehyde by CLSI based broth microdilution method; type: functional
[33] = system: Staphylococcus epidermidis; test: Synergistic antimicrobial activity against Staphylococcus epidermidis 12228 assessed as fractional inhibitory concentration index in presence of thymol by checkerboard broth microdilution assay; type: functional
[34] = Antimicrobial activity against Salmonella enterica subsp. enterica serovar Pullorum ATCC 7913 assessed as reduction in microbial growth by CLSI based broth microdilution method; type: functional
[35] = system: Staphylococcus epidermidis; test: Antimicrobial activity against Staphylococcus epidermidis ATCC 12228 assessed as reduction in microbial growth by CLSI based broth microdilution method; type: functional
Staphylococcus aureus [36] = test: Synergistic antimicrobial activity against Staphylococcus aureus 25923 assessed as fractional inhibitory concentration index in presence of carvacrol by checkerboard broth microdilution assay; type: functional
Escherichia coli [37] = test: Antimicrobial activity against Escherichia coli K88 assessed as reduction in microbial growth in presence of cuminaldehyde by CLSI based broth microdilution method; type: functional
Staphylococcus aureus [38] = test: Synergistic antimicrobial activity against Staphylococcus aureus 29213 assessed as fractional inhibitory concentration index in presence of citronellal by checkerboard broth microdilution assay; type: functional
Pseudomonas aeruginosa [39] = test: Synergistic antimicrobial activity against Pseudomonas aeruginosa 27853 assessed as fractional inhibitory concentration index in presence of cuminaldehyde by checkerboard broth microdilution assay; type: functional
Escherichia coli [40] = test: Antimicrobial activity against Escherichia coli ATCC 25922 assessed as reduction in microbial growth in presence of cuminaldehyde by CLSI based broth microdilution method; type: functional
Escherichia coli [41] = test: Synergistic antimicrobial activity against Escherichia coli 078 assessed as fractional inhibitory concentration index in presence of citral by checkerboard broth microdilution assay; type: functional, 78
Salmonella typhimurium [42] = test: Antimicrobial activity against Salmonella typhimurium ATCC 7731 assessed as reduction in microbial growth in presence of cuminaldehyde by CLSI based broth microdilution method; type: functional, Salmonella enterica subsp. enterica serovar Typhimurium; details: Salmonella enterica
Enterococcus faecalis [43] = test: Synergistic antimicrobial activity against Enterococcus faecalis 29212 assessed as fractional inhibitory concentration index in presence of citronellal by checkerboard broth microdilution assay; type: functional

## CC[C@H](C)[C@H](NC(=O)[C@@H](NC(=O)[C@@H](CCCNC(=N)N)NC(=O)[C@H](C)NC(=O)[C@H](C)NC(=O)[C@@H](N)Cc1cccc2ccccc12)[C@@H](C)CC)C(=O)N[C@@H](CC(C)C)C(=O)N[C@H](CCCNC(=N)N)C(=O)N[C@@H](Cc1c[nH]c2ccccc12)C(=O)N[C@H](CCCNC(=N)N)C(=O)N[C@@H](Cc1ccccc1)C(=O)N[C@@H](CCCNC(=N)N)C(=O)O
Escherichia coli [1]
  fractional inhibitory concentration index (FICI): 0.281
Pseudomonas aeruginosa [2]
  MIC: 512 µg/mL
Enterococcus faecalis [3]
  fractional inhibitory concentration index (FICI): 0.75
Escherichia coli [4]
  fractional inhibitory concentration index (FICI): 0.5
Staphylococcus aureus [5]
  MIC: 8 µg/mL
Staphylococcus aureus [6]
  MIC: 16 µg/mL
[7]
  MIC: 1020 µg/mL
Escherichia coli [8]
  fractional inhibitory concentration index (FICI): 0.375
Escherichia coli [9]
  fractional inhibitory concentration index (FICI): 0.5
Staphylococcus aureus [10]
  MIC: 4 µg/mL
Staphylococcus aureus [11]
  fractional inhibitory concentration index (FICI): 0.75
Staphylococcus aureus [12]
  FIC: 0.063
Salmonella typhimurium [13]
  fractional inhibitory concentration index (FICI): 0.254
Staphylococcus aureus [14]
  fractional inhibitory concentration index (FICI): 0.25
Escherichia coli [15]
  fractional inhibitory concentration index (FICI): 0.257
[16]
  MIC: 4 µg/mL
Escherichia coli [17]
  fractional inhibitory concentration index (FICI): 0.156
Salmonella typhimurium [18]
  MIC: 4 µg/mL
Enterococcus faecalis [19]
  MIC: 512 µg/mL
Escherichia coli [20]
  fractional inhibitory concentration index (FICI): 0.125
[21]
  fractional inhibitory concentration index (FICI): 0.375
Escherichia coli [22]
  MIC: 8 µg/mL
Escherichia coli [23]
  MIC: 4 µg/mL
Staphylococcus aureus [24]
  fractional inhibitory concentration index (FICI): 0.385
[25]
  fractional inhibitory concentration index (FICI): 1
Salmonella typhimurium [26]
  fractional inhibitory concentration index (FICI): 0.254
Staphylococcus aureus [27]
  MIC: 1020 µg/mL
Escherichia coli [28]
  fractional inhibitory concentration index (FICI): 0.313
Escherichia coli [29]
  FIC: 0.125
[30]
  fractional inhibitory concentration index (FICI): 0.125
Salmonella typhimurium [31]
  fractional inhibitory concentration index (FICI): 0.254
Escherichia coli [32]
  MIC: 0.25 µg/mL
[33]
  fractional inhibitory concentration index (FICI): 0.75
[34]
  MIC: 16 µg/mL
[35]
  MIC: 4 µg/mL
Staphylococcus aureus [36]
  fractional inhibitory concentration index (FICI): 0.375
Escherichia coli [37]
  MIC: 2 µg/mL
Staphylococcus aureus [38]
  fractional inhibitory concentration index (FICI): 0.94
Pseudomonas aeruginosa [39]
  fractional inhibitory concentration index (FICI): 0.156
Escherichia coli [40]
  MIC: 1 µg/mL
Escherichia coli [41]
  fractional inhibitory concentration index (FICI): 0.094
Salmonella typhimurium [42]
  MIC: 0.5 µg/mL
Enterococcus faecalis [43]
  fractional inhibitory concentration index (FICI): 0.375
